Measurements: ChEMBL document CHEMBL1201862, “PubChem BioAssay data set” (2004)
Active and inactive are the calls of the source.

What was measured:
[1] = biological target: Peroxisome proliferator-activated receptor gamma/Nuclear receptor coactivator 1 (Homo sapiens, UniProt P37231); experiment: (§1) TR-FRET dose response biochemical High Throughput Screening assay for agonists of the steroid receptor coactivator 1 (SRC-1) recruitment by the peroxisome proliferator-activated receptor gamma (PPAR gamma): non-selective agonists. [Related pubchem assays (depositor defined):AID1300, AID1808, AID504735, AID631]; assay type: protein assay
[2] = biological target: Peroxisome proliferator-activated receptor gamma/Nuclear receptor coactivator 3 (Homo sapiens, UniProt P37231); experiment: as §1, with “3 (SRC-3)” for “1 (SRC-1)”, “assays: 1301 (Confirmation screen.), 1048 (Primary screen.)]” for “assays (depositor defined):AID1300, AID1808, AID504735, AID631]”; assay type: functional
[3] = biological target: Peroxisome proliferator-activated receptor gamma/Nuclear receptor coactivator 2 (Homo sapiens, UniProt P37231); experiment: TR-FRET dose response biochemical High Throughput Screening assay for agonists of the steroid receptor coactivator 2 (SRC-2) recruitment by the peroxisome proliferator-activated receptor gamma (PPAR gamma): non-selective agonists. [Related pubchem assays: 1297, 1032 ]; assay type: functional
Beta-galactosidase = Beta-galactosidase (Escherichia coli, UniProt Q8VNN2); experiment: detection-enzyme interference by beta-gal modulators – biochemical, E. coli enzyme, set 3, artefact control for CCR6 antagonist project, dose response (AID 504712); assay type: functional
[4] = A cytotoxicity screen of small molecule inhibitors of the PhoP region in Salmonella typhi identified in the primary screen. [Related pubchem assays: 1850, 1864, 1985 ]; assay type: functional
HT-1080 = experiment: HT1080 cell viability loss – fluorescence readout (AID 620); assay type: functional, cell-based; conditions: Homo sapiens
Cytochrome P450 2C19 = Cytochrome P450 2C19 (Homo sapiens, UniProt P33261); experiment: Cytochrome panel assay with activity outcomes. Panel member name: p450-cyp2c19 Compounds with AC50 equal or less than 10 uM are considered active; assay type: functional; conditions: read-out: AC50
[5] = biological target: T1, Heat shock factor protein 1 (Mus musculus, UniProt P38532); experiment: decrease of HSF1-responsive luciferase luminescence – cell-based, NIH3T3, dose retest, confirmation (AID 2382); assay type: functional;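 note: NIH3T3 fibroblasts with HSF1-driven luciferase reporter stressed by proteasome inhibitor MG132; luminescence from HSF1-driven luciferase expression after 8 hours of MG132 stress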
T1 sequence (P38532 whole entry): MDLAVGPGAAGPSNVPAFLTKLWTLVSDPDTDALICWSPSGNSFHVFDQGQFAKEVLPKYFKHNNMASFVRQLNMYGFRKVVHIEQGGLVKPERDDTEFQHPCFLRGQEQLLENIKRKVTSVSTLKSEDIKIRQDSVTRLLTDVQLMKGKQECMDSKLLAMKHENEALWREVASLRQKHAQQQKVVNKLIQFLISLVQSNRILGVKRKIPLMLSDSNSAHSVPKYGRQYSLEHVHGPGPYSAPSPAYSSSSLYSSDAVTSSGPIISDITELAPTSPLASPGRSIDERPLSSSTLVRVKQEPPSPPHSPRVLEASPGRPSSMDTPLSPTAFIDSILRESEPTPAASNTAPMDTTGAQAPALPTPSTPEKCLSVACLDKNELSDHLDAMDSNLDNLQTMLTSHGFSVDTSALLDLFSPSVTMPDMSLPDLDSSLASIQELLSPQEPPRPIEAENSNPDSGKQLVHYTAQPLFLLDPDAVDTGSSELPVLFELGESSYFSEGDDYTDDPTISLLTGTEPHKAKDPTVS

[6] = biological target: Luciferin 4-monooxygenase (Photinus pyralis, UniProt P08659); experiment: Counter Screen for Luciferase-based Assay Positives. [Related pubchem assays: 620, 618, 411 ]
Coagulation factor XII = biological target: T2, Coagulation factor XII (Homo sapiens, UniProt P00748); assay type: functional;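 note: activated factor XIIa alpha cleaving a fluorogenic AMC peptide substrate; inhibitor potency from loss of enzyme activity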
T2 sequence (P00748 whole entry): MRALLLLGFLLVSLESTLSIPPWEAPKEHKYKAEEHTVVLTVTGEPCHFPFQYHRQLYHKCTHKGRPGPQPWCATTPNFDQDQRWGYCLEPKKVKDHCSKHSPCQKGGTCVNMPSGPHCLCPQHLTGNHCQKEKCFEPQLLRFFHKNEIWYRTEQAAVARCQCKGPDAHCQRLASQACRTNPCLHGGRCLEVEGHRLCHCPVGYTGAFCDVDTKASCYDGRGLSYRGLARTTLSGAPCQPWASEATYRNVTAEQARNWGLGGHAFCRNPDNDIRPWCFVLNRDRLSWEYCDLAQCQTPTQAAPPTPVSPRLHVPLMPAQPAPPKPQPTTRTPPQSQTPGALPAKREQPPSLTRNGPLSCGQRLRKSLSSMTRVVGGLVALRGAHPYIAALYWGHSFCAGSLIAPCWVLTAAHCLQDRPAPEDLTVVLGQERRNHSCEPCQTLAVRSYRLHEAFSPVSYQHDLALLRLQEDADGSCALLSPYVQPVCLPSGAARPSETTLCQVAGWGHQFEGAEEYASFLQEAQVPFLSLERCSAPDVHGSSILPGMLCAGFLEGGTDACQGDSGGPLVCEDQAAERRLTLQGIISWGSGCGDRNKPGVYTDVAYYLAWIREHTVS

Peroxisome proliferator-activated receptor gamma/Nuclear receptor coactivator 3, sequence (P37231 whole entry): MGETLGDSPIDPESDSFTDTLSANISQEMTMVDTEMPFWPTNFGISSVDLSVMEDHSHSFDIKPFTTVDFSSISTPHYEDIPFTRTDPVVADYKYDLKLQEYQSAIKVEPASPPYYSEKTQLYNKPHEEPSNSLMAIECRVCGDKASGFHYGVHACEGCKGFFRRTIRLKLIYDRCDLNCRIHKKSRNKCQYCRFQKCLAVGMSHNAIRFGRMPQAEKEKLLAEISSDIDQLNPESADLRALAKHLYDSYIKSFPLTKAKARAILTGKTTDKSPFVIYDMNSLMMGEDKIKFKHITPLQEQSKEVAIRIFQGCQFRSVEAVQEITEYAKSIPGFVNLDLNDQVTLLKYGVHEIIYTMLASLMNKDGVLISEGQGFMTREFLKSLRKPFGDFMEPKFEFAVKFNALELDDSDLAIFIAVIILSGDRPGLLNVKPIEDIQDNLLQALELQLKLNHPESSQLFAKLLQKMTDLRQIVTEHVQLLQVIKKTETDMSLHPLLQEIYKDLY
Peroxisome proliferator-activated receptor gamma/Nuclear receptor coactivator 3, sequence (Q9Y6Q9 whole entry, further chain): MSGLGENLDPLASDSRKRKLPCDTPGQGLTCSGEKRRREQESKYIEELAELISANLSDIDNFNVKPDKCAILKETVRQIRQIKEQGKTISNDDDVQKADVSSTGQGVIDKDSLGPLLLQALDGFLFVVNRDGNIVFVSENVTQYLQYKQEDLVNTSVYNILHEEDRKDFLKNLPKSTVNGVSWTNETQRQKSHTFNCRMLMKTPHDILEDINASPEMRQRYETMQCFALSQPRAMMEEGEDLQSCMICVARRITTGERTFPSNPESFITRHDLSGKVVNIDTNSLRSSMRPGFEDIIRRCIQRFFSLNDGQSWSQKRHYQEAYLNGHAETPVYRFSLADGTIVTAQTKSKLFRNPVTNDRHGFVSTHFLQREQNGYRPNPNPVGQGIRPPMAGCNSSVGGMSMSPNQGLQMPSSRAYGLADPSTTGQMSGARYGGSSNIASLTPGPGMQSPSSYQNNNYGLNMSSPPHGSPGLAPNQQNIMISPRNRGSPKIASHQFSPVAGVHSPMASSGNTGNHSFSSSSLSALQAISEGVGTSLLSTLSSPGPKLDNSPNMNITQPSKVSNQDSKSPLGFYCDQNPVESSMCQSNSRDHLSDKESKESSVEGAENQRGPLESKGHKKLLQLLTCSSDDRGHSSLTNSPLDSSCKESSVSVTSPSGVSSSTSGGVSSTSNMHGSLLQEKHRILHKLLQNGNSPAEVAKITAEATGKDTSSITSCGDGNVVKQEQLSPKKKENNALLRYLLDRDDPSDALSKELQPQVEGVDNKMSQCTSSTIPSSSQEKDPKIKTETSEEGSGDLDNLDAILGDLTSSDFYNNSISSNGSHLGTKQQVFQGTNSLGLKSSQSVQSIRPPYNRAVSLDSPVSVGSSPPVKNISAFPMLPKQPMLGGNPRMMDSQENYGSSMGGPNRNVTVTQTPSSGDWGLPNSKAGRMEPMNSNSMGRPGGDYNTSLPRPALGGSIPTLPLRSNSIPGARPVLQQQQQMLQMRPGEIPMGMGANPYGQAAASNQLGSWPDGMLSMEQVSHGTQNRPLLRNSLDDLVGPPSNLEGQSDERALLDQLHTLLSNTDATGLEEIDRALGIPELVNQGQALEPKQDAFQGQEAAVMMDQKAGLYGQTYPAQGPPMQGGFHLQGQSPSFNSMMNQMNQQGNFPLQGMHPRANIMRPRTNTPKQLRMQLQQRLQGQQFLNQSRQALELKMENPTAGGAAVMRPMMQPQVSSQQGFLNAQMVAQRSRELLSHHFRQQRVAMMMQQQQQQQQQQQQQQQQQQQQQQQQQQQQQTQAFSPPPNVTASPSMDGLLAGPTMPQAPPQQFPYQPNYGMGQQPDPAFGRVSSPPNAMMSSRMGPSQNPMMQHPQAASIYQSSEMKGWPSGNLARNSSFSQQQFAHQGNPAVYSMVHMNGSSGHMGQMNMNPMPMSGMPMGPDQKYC
Peroxisome proliferator-activated receptor gamma/Nuclear receptor coactivator 1, sequence (P37231 whole entry): as the sequence (P37231 whole entry) above
Peroxisome proliferator-activated receptor gamma/Nuclear receptor coactivator 1, sequence (Q15788 whole entry, further chain): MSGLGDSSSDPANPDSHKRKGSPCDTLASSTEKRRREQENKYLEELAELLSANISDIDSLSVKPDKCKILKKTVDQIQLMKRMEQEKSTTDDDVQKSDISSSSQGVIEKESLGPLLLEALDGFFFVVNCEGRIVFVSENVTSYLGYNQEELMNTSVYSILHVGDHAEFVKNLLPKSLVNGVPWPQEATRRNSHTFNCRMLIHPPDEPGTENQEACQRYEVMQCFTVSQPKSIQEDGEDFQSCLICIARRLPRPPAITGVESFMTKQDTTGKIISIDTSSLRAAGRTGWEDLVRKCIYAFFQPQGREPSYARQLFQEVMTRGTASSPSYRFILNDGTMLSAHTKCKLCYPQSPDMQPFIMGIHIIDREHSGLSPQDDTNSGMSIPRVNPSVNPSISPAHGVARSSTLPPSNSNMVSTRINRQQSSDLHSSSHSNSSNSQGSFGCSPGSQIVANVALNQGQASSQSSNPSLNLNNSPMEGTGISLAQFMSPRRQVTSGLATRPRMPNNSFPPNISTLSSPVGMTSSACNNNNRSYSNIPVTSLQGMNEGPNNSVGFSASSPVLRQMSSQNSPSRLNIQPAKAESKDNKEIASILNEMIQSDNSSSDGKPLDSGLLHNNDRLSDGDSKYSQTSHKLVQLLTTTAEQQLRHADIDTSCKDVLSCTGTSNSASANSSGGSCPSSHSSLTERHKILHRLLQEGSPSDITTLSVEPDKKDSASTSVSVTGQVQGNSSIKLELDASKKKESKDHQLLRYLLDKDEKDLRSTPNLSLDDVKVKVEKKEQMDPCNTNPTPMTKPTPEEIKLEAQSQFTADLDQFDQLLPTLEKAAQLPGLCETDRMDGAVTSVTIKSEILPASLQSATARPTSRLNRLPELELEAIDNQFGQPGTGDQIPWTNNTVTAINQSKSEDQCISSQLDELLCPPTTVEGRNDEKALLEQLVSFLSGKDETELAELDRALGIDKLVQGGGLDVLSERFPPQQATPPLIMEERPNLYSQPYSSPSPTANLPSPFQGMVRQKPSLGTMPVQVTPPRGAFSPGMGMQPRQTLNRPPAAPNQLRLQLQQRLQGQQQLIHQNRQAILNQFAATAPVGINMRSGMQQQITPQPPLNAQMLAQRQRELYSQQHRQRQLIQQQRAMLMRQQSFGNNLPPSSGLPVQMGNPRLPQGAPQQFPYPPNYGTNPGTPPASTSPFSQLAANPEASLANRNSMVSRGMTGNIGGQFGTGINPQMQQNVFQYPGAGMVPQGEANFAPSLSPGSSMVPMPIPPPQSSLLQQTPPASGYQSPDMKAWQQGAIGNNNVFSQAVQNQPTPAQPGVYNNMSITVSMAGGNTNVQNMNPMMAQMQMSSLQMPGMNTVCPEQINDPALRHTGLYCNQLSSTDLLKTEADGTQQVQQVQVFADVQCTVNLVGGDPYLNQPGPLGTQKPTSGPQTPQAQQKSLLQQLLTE
Luciferin 4-monooxygenase, sequence (P08659 whole entry): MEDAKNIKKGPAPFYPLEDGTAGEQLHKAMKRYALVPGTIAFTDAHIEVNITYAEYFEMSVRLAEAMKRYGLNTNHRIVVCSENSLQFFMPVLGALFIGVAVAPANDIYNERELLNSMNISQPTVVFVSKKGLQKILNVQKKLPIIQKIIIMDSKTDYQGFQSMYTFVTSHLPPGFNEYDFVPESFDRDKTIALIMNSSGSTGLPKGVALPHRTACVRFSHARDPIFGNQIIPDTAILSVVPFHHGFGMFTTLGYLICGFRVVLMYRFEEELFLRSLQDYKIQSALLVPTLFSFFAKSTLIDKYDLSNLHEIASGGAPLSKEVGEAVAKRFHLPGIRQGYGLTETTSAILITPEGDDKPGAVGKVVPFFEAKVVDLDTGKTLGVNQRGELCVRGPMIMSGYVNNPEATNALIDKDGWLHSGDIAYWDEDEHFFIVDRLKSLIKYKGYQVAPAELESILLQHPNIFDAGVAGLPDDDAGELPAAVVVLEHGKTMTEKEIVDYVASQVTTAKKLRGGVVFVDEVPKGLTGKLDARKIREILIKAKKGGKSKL
Cytochrome P450 2C19, sequence (P33261 whole entry): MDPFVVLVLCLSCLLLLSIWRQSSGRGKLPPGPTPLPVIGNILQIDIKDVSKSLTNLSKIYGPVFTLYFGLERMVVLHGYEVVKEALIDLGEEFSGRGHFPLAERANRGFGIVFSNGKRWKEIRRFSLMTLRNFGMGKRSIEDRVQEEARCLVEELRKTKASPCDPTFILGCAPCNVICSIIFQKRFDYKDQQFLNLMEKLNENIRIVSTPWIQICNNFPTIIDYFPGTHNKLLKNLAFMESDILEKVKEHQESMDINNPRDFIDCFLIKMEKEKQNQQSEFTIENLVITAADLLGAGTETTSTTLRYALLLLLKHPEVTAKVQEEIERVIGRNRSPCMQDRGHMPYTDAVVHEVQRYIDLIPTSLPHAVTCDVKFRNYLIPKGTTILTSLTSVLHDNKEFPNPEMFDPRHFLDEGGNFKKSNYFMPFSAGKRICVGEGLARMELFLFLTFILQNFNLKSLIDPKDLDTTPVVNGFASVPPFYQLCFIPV

**Q.** For `COc1cccc(Nc2nc(-c3sc(NC(=O)c4ccccc4)nc3C)cs2)c1`, which EC50 [1] is on record?
**A.** 14.8 µM (inactive)

**Q.** And the EC50 [2]?
**A.** > 79.4 µM (not active)

**Q.** And the EC50 [3]?
**A.** 27.9 µM (not active)

**Q.** For `CCn1c(=O)cc(SCC(=O)Nc2cccc(SC)c2)c2ccccc21`, which EC50 [1] is on record?
**A.** 69.8 µM (inactive)

**Q.** What about the EC50 [2] of the same molecule?
**A.** > 79.4 µM (not active)

**Q.** And the EC50 [3]?
**A.** > 26.5 µM (not active)

**Q.** For `CN1C(=O)C(c2c(O)[nH]c3ccccc23)=NC1=S`, which IC50 (Beta-galactosidase) is on record?
**A.** > 66.6 µM (inactive)

**Q.** For `COc1cccc(N2CCN(C(S)=NCc3ccco3)CC2)c1`, which EC50 [4] is on record?
**A.** > 50 µM (active)

**Q.** For `Cc1occc1C(=O)N/N=C/c1cccs1`, which EC50 [4] is on record?
**A.** > 50 µM (active)

**Q.** For `CCOC(=O)c1sc2nc3c(cc2c1N)COC(C(C)C)C3` (centres undefined), which EC50 (HT-1080) is on record?
**A.** > 50 µM (not active)

**Q.** And the AC50 (Cytochrome P450 2C19)?
**A.** 22.4 µM (inconclusive)

**Q.** And the EC50 [5]?
**A.** > 195 µM (not active)

**Q.** And the EC50 [6]?
**A.** 2.84 µM (active)

**Q.** Which IC50 (Coagulation factor XII) does the source give for `COc1cccc(NC(=O)Nc2ccccc2SC)c1` here?
**A.** > 50 µM (inactive)
